According to patent publication US20100240605A1, “NOVEL IMMUNOTHERAPY STRATEGY” (priority 2007, published 2010):
Entries after “also recorded” stand apart in the source; their conditions may differ. Where two headings read alike, the source gives them in different places.

Columns and labels:
[1] = tested on: various human and mouse cell lines; experiment: Toxicity of the test solution on cell lines; format: cell-based; settings: test solution (2 mg COAM in 100 μl 0.9% NaCl)
[2] = target: T1, mouse granulocyte chemotactic protein-2 (mGCP-2) (Mus musculus, UniProt P50228); experiment: Chemokine binding in solution, gel filtration chromatography with ELISA of fractions
T1 sequence (P50228 41-132): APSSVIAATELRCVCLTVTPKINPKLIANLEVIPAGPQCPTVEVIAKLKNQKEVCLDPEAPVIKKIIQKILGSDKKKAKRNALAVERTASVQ
Procedure: The COAM preparation was incubated with 50 nanogram mouse GCP-2 and the mixture was analysed by gel filtration chromatography (lower figure) and the presence of GCP-2 in the column fractions was analysed with a sensitive ELISA for mouse GCP-2.
(§1) COAM alone, mGCP-2 or COAM incubated in the presence of mGCP-2 were separated by classical gel filtration chromatography. The elution fractions were collected and the presence of mGCP-2 was determined in the elution fractions by ELISA specific for mGCP-2. […] Since COAM itself is a mixture of polymers with different lengths, we fractioned first COAM in three fractions and then repeated the mGCP-2 binding and chromatographic analysis (as described above) with the high molecular weight COAM (high MW COAM) and mGCP-2. […] This is illustrated in FIG. 2.

[3] = target: T2, human interleukin-8/CXCL8 (IL-8/CXCL8) (Homo sapiens, UniProt P10145); experiment: Chemokine binding in solution, gel filtration chromatography; settings: 500 ng IL-8/CXCL8; free IL-8 eluted at low molecular masses
T2 sequence (P10145 21-99): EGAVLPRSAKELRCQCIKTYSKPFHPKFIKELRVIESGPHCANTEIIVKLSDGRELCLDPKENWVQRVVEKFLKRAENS
Procedure: as §1
In a second set of experiments human 500 ng interleukin-8/CXCL8 (IL-8/CXCL8) was tested.

[4] = target: human monocyte chemotactic protein-1/CCL2 (MCP-1/CCL2) (Homo sapiens, UniProt P13500); experiment: as above; settings: 500 ng MCP-1/CCL2; free MCP-1 eluted at low molecular weight
Chain of human monocyte chemotactic protein-1/CCL2 (MCP-1/CCL2) (P13500 24-99): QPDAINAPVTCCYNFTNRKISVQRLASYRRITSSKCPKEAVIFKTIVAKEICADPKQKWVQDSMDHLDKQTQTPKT
Procedure: as §1
In a third set, 500 ng human monocyte chemotactic protein-1/CCL2 (MCP-1/CCL2) was tested. Again, free MCP-1 eluted at low molecular weight, compatible with the relative size of MCP-1. […] This is again compatible with its binding to COAM

[5] = target: T3, synthetic human IP-10/CXCL10 (Homo sapiens, UniProt P02778); experiment: as above; settings: no separate IP-10 result printed
T3 sequence (P02778 22-98): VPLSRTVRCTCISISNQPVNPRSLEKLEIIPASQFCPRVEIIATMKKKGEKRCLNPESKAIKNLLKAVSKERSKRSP
From the text: In a fourth example, we used synthetic human IP-10/CXCL10.

[6] = tested on: B16-F1 mouse melanoma tumors; experiment: Syngeneic B16-F1 melanoma tumors in C57BI6 mice, intratumoral injection; format: in vivo; settings: for effect on tumor expansion: single intratumoral dose of 100 μg at day 1 post tumor inoculation, COAM, heparin, saline compared
Procedure: We used B16-F1 mouse melanoma tumors in C57BI6 mice. 0.5 million tumor cells were injected intradermally on day 0 as known in the art. In one experiment, control mice were injected with saline on days 1, 8 and 15. The treated group COAM d1 was injected intratumorally with a single dose of 100 μg COAM on day1. The treated group COAM d1, d8, d15 was injected with 100 μg COAM three times intratumorally. […] In some cases the tumor ulcerated.
At day 18, all tumors were excised and their volumes and weights were measured.
In particular, in the FIGS. 5 A, B, C and D, we used heparin as an additional control. […] Heparin is a polyanion and binds chemokines and mimics heparin sulphate proteoglycans. The experiment was repeated as above with a single intratumoral dose of 100 μg COAM, 100 μg heparin and saline control at day 1 post tumor inoculation.

B16-F1 cells = experiment: B16 melanoma formation in immunocompromised SCID mice; format: in vivo; settings: 500 000 B16-F1 cells s.c. on day 0
From the text: We used a similar protocol as above in immunocompromised SCID mice. The SCID mice received s.c. 500 000 B16-F1 cells on day 0.

[7] = tested on: CD11b+Gr-1+ cells (neutrophils); experiment: EAE model: neutrophil mobilization to the peritoneal cavity and infiltration of spinal cord and brain; format: in vivo, mice; settings: for CD11b^+Gr-1^+ cells in the peritoneal cavity: 2 mg COAM i.p. on day 0 and 7
Procedure: FIG. 9: Mobilization of neutrophils into the peritoneal cavity in response to COAM. Mice were immunized with SCH in CFA and treated with COAM (2 mg) or saline on days 0 and 7. Peritoneal cells were collected on days 5, 9 and 14, or 16 post immunization. […] Data represent three individual experiments taken together; bars represent averages±standard error of the mean of seven or nine mice. (B) Flow cytometric analysis of peritoneal cells of control mice and COAM-treated mice. Cells were stained for the presence of CD11b using FITC-labeled antibodies, and of Gr-1 using PE-labeled antibodies. Numbers indicated on each graph represent percent CD11b^+Gr-1^+ cells. One representative analysis out of 9 is shown.
FIG. 10: Neutrophil infiltration in the spinal cord and brain of COAM-treated mice is reduced compared with saline-treated control mice. […] Data of 3 pooled experiments are shown. Histograms represent averages±SEM. (B) Flow cytometry of cells isolated from the spinal cord and brain on day 16 post immunization of mice treated with COAM (2 mg) or saline on days 0 and 7. Cells were stained for CD11b and Gr-1. Numbers indicated on each graph represent percent CD11b^+Gr-1^+ cells. Each plot represents a staining pattern of pooled cells from 3 mice. Results are representative of three independent experiments with similar results.
(§2) Experimental autoimmune encephalomyelitis was induced in mice (mice were immunized with SCH in CFA) and the groups were randomized. One group was treated with 2 mg COAM intraperitoneally on day 0 and day 7.
Mice were immunized with SCH in CFA on day 0 and treated i.p. with 2 mg COAM or saline on day 0 and 7. Cells were obtained from the peritoneal cavity of saline- and COAM-treated mice on day 5, 9 and 14, 15 or 16 after immunization. Cells were stained with anti-CD11b-FITC and anti-Gr-1-PE antibodies. The proportion of CD11b^+Gr-1^+ cells is shown. Results represent pooled data from 3 experiments and N indicates the total number of mice examined. *p<0.05 between COAM-treated and saline-treated mice (Mann-Whitney U-test).

[8] = tested on: experimental autoimmune encephalomyelitis; experiment: EAE model: clinical course of active EAE; format: in vivo, SJL/J mice
Procedure: FIG. 11: The clinical course of active EAE is attenuated in COAM-treated mice. SJL/J mice were immunized subcutaneously with syngeneic spinal cord homogenate for induction of EAE. They were treated i.p. with 2 mg COAM (filled boxes) or saline (open boxes) on day 0 (A), day 8 (B) or days 0 and 7 (C) post immunization. The clinical course of EAE in these mice is shown as mean daily group score±sem. The disease parameters are given as an insert. Dead animals were scored 6 from the day of death until the end of the study. Arrows point to the days of COAM administration. *p<0.05; **p<0.01 for comparison with saline-treated group; Wilcoxon test or Chi-square test.
as §2
SJL/J mice were immunized subcutaneously with syngeneic spinal cord homogenate for induction of EAE. They were treated i.p. with 2 mg COAM (filled boxes) or saline (open boxes) on day 0 (A), day 8 (B) or days 0 and 7 (C) post immunization. The clinical course of EAE in these mice is shown as mean daily group score±sem. The disease parameters are given as an insert. Dead animals were scored 6 from the day of death until the end of the study. […]

peritoneal leukocytes = settings: for neutrophils among peritoneal cells: 2 mg unfractionated COAM i.p.
Procedure: In a first set of in vivo experiments, 2 mg of COAM (unfractionated, solution of 2 mg in 100 μl sterile pyrogen-free 0.9% NaCl) was injected intraperitoneally per mouse and leukocytes were counted and defined at different times after injection of groups of 3-4 mice.

[9] = tested on: Moloney Sarcoma Virus-induced tumor; settings: IP administration; De Clercq et al. 1972; cited from earlier work
[10] = EAE mice, 2 mg COAM i.p. on days 0 and 7

Substance: chlorite-oxidized oxyamylose [COAM]
- toxic effect on cell lines [1]: not any toxic effect
- elution position of mGCP-2 together with COAM (molecular weight range) ([2]; COAM incubated with mGCP-2, mGCP-2 alone eluted at about 10 kilodaltons): > 50 kilodaltons
- binding of mGCP-2 ([2]; in solution, gel filtration, ELISA for mouse GCP-2): GCP-2 binds to COAM in solution
- elution of interleukin-8 in the presence of COAM [3]: coeluted with COAM at high relative molecular weight
- elution of MCP-1 in the presence of COAM [4]: eluted at the position of the high molecular weight of COAM
- chemokine binding, conclusion from results with mGCP-2, IL-8, MCP-1, IP-10 [5]: general chemokine-binding factor
- additional effect of three injections instead of one injection ([6]; 100 μg intratumorally d1, d8, d15 versus d1 only): No additional effect
- overall mean tumor volume and weights as function of time ([6]; COAM-treated groups (100 μg intratumorally d1, or d1, d8, d15) versus saline): significantly reduced
- tumor burden with exclusion of ulcerated open tumors ([6]; COAM-treated groups versus saline): significant effect on tumor burden
- spleen weight (readout of systemic inflammation) ([6]; after intratumoral injection, compared with saline and heparin): no overt splenomegaly
- tumor volume ([6]; single COAM-treated group (COAM d1 only) versus saline, several experiments combined, p<0.015): significantly reduced
- tumor weight ([6]; single COAM-treated group (COAM d1 only) versus saline, several experiments combined, p<0.025): significantly reduced
- tumor growth ([6]; single dose of 100 μg COAM intratumorally at Day 1 versus saline, 6 COAM-treated and 5 control mice): significant reduction of tumor growth
- effect on tumor expansion [6]: lasting and significant effect
- tumor volume ([6]; triple treated COAM versus control group, p<0.030): significantly reduced
- tumor weight ([6]; triple treated COAM versus control group, p<0.05): significantly reduced
- protection against tumors in an immunocompromised host (B16-F1 cells): protects an immunocompromised host against tumors
- mast cell population in the peritoneal cavity [7, 10]: reduced; also recorded: decrease in mast cells
- neutrophil recruitment to the peritoneal cavity [7, 10]: increased neutrophil recruitment; also recorded: specific infiltration of neutrophils
- CD11b^+Gr-1^+ cells in the peritoneal cavity ([7]; day 5 p.i., N = 8): 322.78 ± 79.43 (N = 8) ×10^4
- CD11b^+Gr-1^+ cells in the peritoneal cavity ([7]; day 9 p.i., N = 9, p<0.05 versus saline): 1210.85 ± 272.05 (N = 9) * ×10^4
- CD11b^+Gr-1^+ cells in the peritoneal cavity ([7]; day 14-16 p.i., N = 5, p<0.05 versus saline): 276.66 ± 67.29 (N = 5) * ×10^4
- neutrophil infiltration into spinal cord and brain ([7]; day 16 post immunization, 2 mg COAM i.p. on days 0 and 7, versus saline): reduced; also recorded: lower percentage of neutrophils
- clinical course of active EAE (mean daily group score) ([8]; 2 mg COAM i.p. on day 0, day 8 or days 0 and 7 post immunization, versus saline): attenuated
- protection against severe EAE ([8]; two injections of COAM): protect a mammalian host against severe EAE
- survival and morbidity of the mice (peritoneal leukocytes; 2 mg unfractionated COAM i.p. per mouse): survived without apparent morbidity
- peritoneal cells (peritoneal leukocytes; 2 mg unfractionated COAM i.p. per mouse, within 2 hours, control 126.000 cells): 630.000 cells
- neutrophils among peritoneal cells (peritoneal leukocytes; at 4 h): 64.1%
- neutrophils among peritoneal cells (peritoneal leukocytes; at 8 h): 70.3%
- neutrophils among peritoneal cells (peritoneal leukocytes; within 2 hours, control 2.2%): 18.1%
- regression of tumors [9]: not show a regression of tumors

Substance: heparin [reference compound]
- effect on tumor expansion [6]: some effect in the early phase
